# Values of other authors in US9624424B2, “Large stokes shift dyes” (LIFE TECHNOLOGIES CORPORATION, priority 2009, dated 2017).
row,Compound,extinction coefficient around 605 nm (commercial dyes emitting at 750-800 nm)
1,AlexaFluor 750 [AF750],"~15,000 M^−1cm^−1"
2,CCN1c2cc3c(cc2C(C)=CC1(C)C)C(=CC=CC=CC1=[N+](CCCCCC(=O)O)c2ccc(S(=O)(=O)[O-])cc2C1(C)C)C=C(C(C)(C)C)O3 [Dy750],"~15,000 M^−1cm^−1"
3,CC(C)(C)c1cc(/C=C/C=C/C=C2/N(CCCS(=O)(=O)[O-])c3ccc(S(=O)(=O)[O-])cc3C2(C)CCCC(=O)O)c2ccc(=[N+](CCCS(=O)(=O)[O-])CCCS(=O)(=O)[O-])cc-2o1.[Na+].[Na+].[Na+] (stereo not shown) [Dy734],"~15,000 M^−1cm^−1"
4,CCN1C(=CC=CC=CC=CC2=[N+](CCCCCC(=O)O)c3ccc(S(=O)(=O)O)cc3C2(C)C)C(C)(C)c2cc(S(=O)(=O)[O-])ccc21 [Cy7],"~15,000 M^−1cm^−1"
